Laboratory results published in ChEMBL document CHEMBL6134905, “Double Swords in One: Novel Selective PI3K/110β PROTAC Degraders for the Treatment of Multidrug-Resistant Cancer by Activating ERS and Inhibiting P-gp” (J Med Chem, 2025).
Activity calls are given as the source filed them. No cut-off for these calls is given here.

Experiments:
MCF7/ADM [1] = assay: Antitumor activity against human MCF7/ADM cells xenografted in BALB/c mouse assessed as downregulation of p110beta level in tumor at 50 mg/kg, ip; format: functional, organism-based
[2] = biological target: T1, von Hippel-Lindau disease tumor suppressor/Phosphatidylinositol 4,5-bisphosphate 3-kinase catalytic subunit beta isoform (Homo sapiens, UniProt P42338+P40337); assay: PROTAC activity at PI3K-p110beta/VHL in human A549/DDP cells assessed as induction of PI3K-p110beta degradation at 25 uM measured for 24 hrs in presence of VHL ligand by Western blot analysis; format: cell-based
Target sequence in this assay (P40337 whole entry, looked up, canonical isoform): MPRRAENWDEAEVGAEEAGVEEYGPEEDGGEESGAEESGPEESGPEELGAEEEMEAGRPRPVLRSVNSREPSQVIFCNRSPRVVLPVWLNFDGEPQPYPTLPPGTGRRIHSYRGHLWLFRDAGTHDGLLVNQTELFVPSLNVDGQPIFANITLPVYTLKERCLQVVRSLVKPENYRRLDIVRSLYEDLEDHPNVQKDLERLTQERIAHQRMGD
Target sequence in this assay (P42338 whole entry, looked up, canonical isoform): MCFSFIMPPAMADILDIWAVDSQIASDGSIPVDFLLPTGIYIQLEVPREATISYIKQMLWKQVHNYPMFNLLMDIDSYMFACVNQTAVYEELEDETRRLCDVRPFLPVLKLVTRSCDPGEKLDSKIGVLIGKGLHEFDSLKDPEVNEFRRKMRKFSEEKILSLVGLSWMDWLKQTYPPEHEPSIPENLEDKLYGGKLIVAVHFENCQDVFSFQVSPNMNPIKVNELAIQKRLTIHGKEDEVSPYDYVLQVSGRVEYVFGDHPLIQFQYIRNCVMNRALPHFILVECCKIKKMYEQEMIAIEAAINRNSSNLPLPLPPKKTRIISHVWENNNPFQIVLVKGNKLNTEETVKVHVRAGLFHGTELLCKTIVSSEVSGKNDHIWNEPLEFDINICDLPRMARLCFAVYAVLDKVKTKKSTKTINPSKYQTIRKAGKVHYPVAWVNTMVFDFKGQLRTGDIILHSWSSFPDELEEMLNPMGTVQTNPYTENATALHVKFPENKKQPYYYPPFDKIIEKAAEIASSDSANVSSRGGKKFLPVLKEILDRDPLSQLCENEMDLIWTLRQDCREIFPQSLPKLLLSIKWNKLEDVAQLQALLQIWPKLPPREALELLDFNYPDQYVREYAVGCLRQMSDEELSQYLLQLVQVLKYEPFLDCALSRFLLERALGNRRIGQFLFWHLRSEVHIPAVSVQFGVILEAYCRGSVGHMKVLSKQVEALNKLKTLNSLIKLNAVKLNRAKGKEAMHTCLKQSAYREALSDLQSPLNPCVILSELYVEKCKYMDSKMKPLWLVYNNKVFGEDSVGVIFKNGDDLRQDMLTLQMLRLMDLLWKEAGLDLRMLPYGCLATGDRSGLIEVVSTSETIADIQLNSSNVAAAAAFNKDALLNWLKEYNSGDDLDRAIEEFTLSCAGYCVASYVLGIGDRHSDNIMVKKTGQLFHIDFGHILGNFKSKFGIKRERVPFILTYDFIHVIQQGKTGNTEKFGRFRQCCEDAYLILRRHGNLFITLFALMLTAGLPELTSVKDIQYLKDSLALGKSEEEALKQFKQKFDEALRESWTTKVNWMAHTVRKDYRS

MCF7/ADM [3] = assay: Induction of apoptosis in human MCF7/ADM cells assessed as decrease in bcl-2 expression at 12.5 uM incubated for 24 hrs by Western blot analysis; format: functional, cell-based
[4] = Toxicity in BALB/c mouse xenografted with human MCF7/ADM cells assessed as change in BUN level at 50 mg/kg, ip; format: organism-based; settings: in vivo
MCF7/ADM [5] = assay: Antitumor activity against human MCF7/ADM cells xenografted in BALB/c mouse assessed as increase in pIRE1 expression in tumor at 50 mg/kg, ip by Western blot analysis; format: functional, organism-based
[6] = biological target: ATP-dependent translocase ABCB1 (Homo sapiens, UniProt P08183); assay: Inhibition of P-gp in human A549/DDP cells at 6.25 to 25 uM incubated for 24 hrs; format: cell-based; settings: dose 6.25-25 µM
ATP-dependent translocase ABCB1, sequence (P08183 whole entry): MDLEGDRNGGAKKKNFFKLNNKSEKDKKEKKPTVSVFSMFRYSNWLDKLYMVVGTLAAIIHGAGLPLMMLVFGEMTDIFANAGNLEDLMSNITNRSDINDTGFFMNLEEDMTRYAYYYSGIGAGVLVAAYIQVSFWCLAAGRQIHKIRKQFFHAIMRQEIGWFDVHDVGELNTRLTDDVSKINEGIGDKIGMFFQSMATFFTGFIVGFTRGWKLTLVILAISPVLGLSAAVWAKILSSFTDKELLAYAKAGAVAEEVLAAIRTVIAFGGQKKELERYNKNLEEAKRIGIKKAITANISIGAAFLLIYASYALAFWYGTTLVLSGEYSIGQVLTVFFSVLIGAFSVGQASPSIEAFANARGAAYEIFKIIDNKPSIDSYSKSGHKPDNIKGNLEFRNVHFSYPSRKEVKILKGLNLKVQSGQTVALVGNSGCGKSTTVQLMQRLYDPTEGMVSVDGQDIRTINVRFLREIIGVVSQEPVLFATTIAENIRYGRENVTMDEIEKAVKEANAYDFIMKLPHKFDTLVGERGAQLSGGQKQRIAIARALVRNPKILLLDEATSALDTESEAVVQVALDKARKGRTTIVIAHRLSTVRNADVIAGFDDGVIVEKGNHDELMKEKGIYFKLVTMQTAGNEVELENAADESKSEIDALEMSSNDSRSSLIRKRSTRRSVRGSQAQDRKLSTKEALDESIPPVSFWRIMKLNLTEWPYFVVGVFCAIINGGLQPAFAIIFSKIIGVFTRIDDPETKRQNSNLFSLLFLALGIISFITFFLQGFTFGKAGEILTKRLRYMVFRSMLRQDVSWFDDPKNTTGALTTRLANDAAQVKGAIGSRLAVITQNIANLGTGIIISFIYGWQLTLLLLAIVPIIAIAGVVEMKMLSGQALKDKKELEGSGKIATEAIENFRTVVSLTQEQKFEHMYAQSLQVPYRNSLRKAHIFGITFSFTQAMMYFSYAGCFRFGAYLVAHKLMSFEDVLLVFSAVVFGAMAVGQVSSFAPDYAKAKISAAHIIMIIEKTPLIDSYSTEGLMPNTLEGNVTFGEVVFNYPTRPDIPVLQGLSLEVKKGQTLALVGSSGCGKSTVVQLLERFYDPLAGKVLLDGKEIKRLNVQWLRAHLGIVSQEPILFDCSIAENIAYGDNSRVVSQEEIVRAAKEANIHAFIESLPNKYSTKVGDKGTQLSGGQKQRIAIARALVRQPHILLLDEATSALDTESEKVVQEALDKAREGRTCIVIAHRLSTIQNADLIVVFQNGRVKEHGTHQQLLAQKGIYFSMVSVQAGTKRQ

MCF7/ADM [7] = assay: Upregulation of PTEN expression in human MCF7/ADM cells at 25 uM incubated for 24 hrs by Western blot analysis; format: functional, cell-based
MCF7/ADM [8] = assay: Antitumor activity against human MCF7/ADM cells xenografted in BALB/c mouse assessed as reduction in tumor volume at 50 mg/kg, ip measured every 2 days; format: functional, organism-based; settings: time 2.0 day
A549/CDDP [9] = assay: Induction of apoptosis in human A549/DDP cells assessed as increase in caspase-3 expression at 12.5 uM incubated for 24 hrs by Western blot analysis; format: functional, cell-based
A549/CDDP [10] = assay: Induction of apoptosis in human A549/DDP cells assessed as decrease in bax expression at 12.5 uM incubated for 24 hrs by Western blot analysis; format: functional, cell-based
[11] = biological target: T1, von Hippel-Lindau disease tumor suppressor/Phosphatidylinositol 4,5-bisphosphate 3-kinase catalytic subunit beta isoform; assay: PROTAC activity at PI3K-p110beta/VHL in human MCF7/ADM cells assessed as induction of PI3K-p110beta degradation at 25 uM measured for 24 hrs in presence of TGX221 by Western blot analysis; format: cell-based
Target sequence in this assay (P40337 whole entry, looked up, canonical isoform): as the sequence (P40337 whole entry, looked up, canonical isoform) above
Target sequence in this assay (P42338 whole entry, looked up, canonical isoform): as the sequence (P42338 whole entry, looked up, canonical isoform) above

MCF7/ADM [12] = assay: Antitumor activity against human MCF7/ADM cells xenografted in BALB/c mouse assessed as decrease in bcl-2 expression in tumor at 50 mg/kg, ip by Western blot analysis; format: functional, organism-based
A549/CDDP [13] = assay: Antitumor activity against human A549/DDP cells assessed as cell viability incubated for 24 hrs by MTT assay; format: functional, cell-based
MCF7/ADM [14] = assay: Antitumor activity against human MCF7/ADM cells xenografted in BALB/c mouse assessed as reduction in p-gp expression in tumor at 50 mg/kg, ip by Western blot analysis; format: functional, organism-based
[15] = biological target: T1, von Hippel-Lindau disease tumor suppressor/Phosphatidylinositol 4,5-bisphosphate 3-kinase catalytic subunit beta isoform; assay: PROTAC activity at PI3K-p110beta/VHL in human A549/DDP cells assessed as induction of PI3K-p110beta degradation at 25 uM measured for 24 hrs in presence of MG132 by Western blot analysis; format: cell-based
Target sequence in this assay (P40337 whole entry, looked up, canonical isoform): as the sequence (P40337 whole entry, looked up, canonical isoform) above
Target sequence in this assay (P42338 whole entry, looked up, canonical isoform): as the sequence (P42338 whole entry, looked up, canonical isoform) above

A549/CDDP [16] = assay: Induction of apoptosis in human A549/DDP cells assessed as increase in cleaved caspase-3 expression at 12.5 uM incubated for 24 hrs by Western blot analysis; format: functional, cell-based
[17] = biological target: T1, von Hippel-Lindau disease tumor suppressor/Phosphatidylinositol 4,5-bisphosphate 3-kinase catalytic subunit beta isoform; assay: PROTAC activity at PI3K-p110beta/VHL in human MCF7/ADM cells assessed as induction of PI3K-p110beta degradation at 25 uM measured for 24 hrs in presence of VHL ligand by Western blot analysis; format: cell-based
Target sequence in this assay (P40337 whole entry, looked up, canonical isoform): as the sequence (P40337 whole entry, looked up, canonical isoform) above
Target sequence in this assay (P42338 whole entry, looked up, canonical isoform): as the sequence (P42338 whole entry, looked up, canonical isoform) above

MCF7/ADM [18] = assay: Induction of apoptosis in human MCF7/ADM cells assessed as decrease in bax expression at 12.5 uM incubated for 24 hrs by Western blot analysis; format: functional, cell-based
A549/CDDP [19] = assay: Induction of apoptosis in human A549/DDP cells assessed as increase in caspase-9 expression at 12.5 uM incubated for 24 hrs by Western blot analysis; format: functional, cell-based
MCF7/ADM [20] = assay: Antitumor activity against human MCF7/ADM cells xenografted in BALB/c mouse assessed as effect on PTEN expression in tumor at 50 mg/kg, ip by Western blot analysis; format: functional, organism-based
A549/CDDP [21] = assay: Induction of apoptosis in human A549/DDP cells assessed as increase in cleaved caspase-9 expression at 12.5 uM incubated for 24 hrs by Western blot analysis; format: functional, cell-based
[22] = Toxicity in BALB/c mouse xenografted with human MCF7/ADM cells assessed as body weight loss at 50 mg/kg, ip; format: organism-based; settings: in vivo
MCF7/ADM [23] = assay: Antitumor activity against human MCF7/ADM cells xenografted in BALB/c mouse assessed as increase in caspase-12 expression in tumor at 50 mg/kg, ip by Western blot analysis; format: functional, organism-based
[24] = Toxicity in BALB/c mouse xenografted with human MCF7/ADM cells assessed as change in ALT level at 50 mg/kg, ip; format: organism-based; settings: in vivo
[25] = biological target: T2, von Hippel-Lindau disease tumor suppressor/Phosphatidylinositol 4,5-bisphosphate 3-kinase catalytic subunit alpha isoform (Homo sapiens, UniProt P42336+P40337); assay: PROTAC activity at PI3K-p110alpha/VHL in human A549/DDP cells assessed as induction of PI3K-p110alpha degradation incubated for 24 hrs by Western blot analysis; format: cell-based; settings: for Activity: dose 0.04-50 µM
[26] = biological target: T2, von Hippel-Lindau disease tumor suppressor/Phosphatidylinositol 4,5-bisphosphate 3-kinase catalytic subunit alpha isoform; assay: PROTAC activity at PI3K-p110alpha/VHL in human A549/DDP cells assessed as induction of PI3K-p110alpha degradation at 0.04 to 50 uM by Western blot analysis; format: cell-based; settings: dose 0.04-50 µM, time 24.0 hrs
Target sequence in this assay (P40337 whole entry, looked up, canonical isoform): as the sequence (P40337 whole entry, looked up, canonical isoform) above
Target sequence in this assay (P42336 whole entry, looked up, canonical isoform): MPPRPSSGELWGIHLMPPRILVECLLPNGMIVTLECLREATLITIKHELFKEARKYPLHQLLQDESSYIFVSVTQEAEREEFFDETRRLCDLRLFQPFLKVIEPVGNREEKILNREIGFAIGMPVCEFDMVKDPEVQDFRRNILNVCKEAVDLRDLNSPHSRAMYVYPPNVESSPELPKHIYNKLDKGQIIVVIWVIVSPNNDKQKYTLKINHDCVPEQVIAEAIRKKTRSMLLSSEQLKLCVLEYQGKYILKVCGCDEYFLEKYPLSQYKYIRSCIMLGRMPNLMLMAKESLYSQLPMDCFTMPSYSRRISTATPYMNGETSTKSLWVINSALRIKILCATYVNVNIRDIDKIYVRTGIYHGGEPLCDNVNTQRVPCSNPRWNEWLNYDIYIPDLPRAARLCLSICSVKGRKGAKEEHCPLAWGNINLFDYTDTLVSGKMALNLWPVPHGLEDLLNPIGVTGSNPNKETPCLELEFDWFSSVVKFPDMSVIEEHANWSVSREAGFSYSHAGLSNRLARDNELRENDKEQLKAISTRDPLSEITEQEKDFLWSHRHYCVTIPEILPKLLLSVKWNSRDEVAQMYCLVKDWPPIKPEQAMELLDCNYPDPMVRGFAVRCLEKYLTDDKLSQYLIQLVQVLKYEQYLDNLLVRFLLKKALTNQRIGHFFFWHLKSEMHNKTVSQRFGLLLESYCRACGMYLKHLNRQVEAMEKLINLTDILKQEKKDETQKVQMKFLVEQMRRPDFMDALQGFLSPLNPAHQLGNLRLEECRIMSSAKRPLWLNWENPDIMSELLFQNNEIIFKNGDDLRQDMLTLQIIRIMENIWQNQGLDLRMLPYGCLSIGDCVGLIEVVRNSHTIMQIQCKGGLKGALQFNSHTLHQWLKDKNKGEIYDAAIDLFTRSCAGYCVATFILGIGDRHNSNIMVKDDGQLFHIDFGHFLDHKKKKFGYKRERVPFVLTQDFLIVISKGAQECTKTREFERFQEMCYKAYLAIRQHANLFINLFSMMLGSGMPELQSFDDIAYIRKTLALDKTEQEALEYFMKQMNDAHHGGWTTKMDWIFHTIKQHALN

MCF7/ADM [27] = assay: Induction of apoptosis in human MCF7/ADM cells assessed as increase in cleaved caspase-9 expression at 12.5 uM incubated for 24 hrs by Western blot analysis; format: functional, cell-based
MCF7/ADM [28] = assay: Upregulation of PERK expression in human MCF7/ADM cells at 0.25 to 25 uM incubated for 24 hrs by Western blot analysis; format: functional, cell-based; settings: dose 0.25-25 µM
[29] = Toxicity in BALB/c mouse xenografted with human MCF7/ADM cells assessed as change in creatinine level at 50 mg/kg, ip; format: organism-based; settings: in vivo
Mitochondrial membrane = assay: Induction of mitochondrial membrane potential loss in human A549/DDP cells assessed as increase in green fluorescence at 25 uM incubated for 48 hrs by JC-1 staining based flow cytometry
A549/CDDP [30] = assay: Induction of apoptosis in human A549/DDP cells assessed as decrease in bcl-2 expression at 12.5 uM incubated for 24 hrs by Western blot analysis; format: functional, cell-based
MCF7/ADM [31] = assay: Antitumor activity against human MCF7/ADM cells xenografted in BALB/c mouse assessed as reduction in p-110beta expression in tumor at 50 mg/kg, ip by Western blot analysis; format: functional, organism-based
[32] = biological target: T1, von Hippel-Lindau disease tumor suppressor/Phosphatidylinositol 4,5-bisphosphate 3-kinase catalytic subunit beta isoform; assay: PROTAC activity at PI3K-p110beta/VHL in human A549/DDP cells assessed as reduction in PI3K-p110beta level incubated for 24 hrs by Western blot analysis; format: cell-based
[33] = biological target: T1, von Hippel-Lindau disease tumor suppressor/Phosphatidylinositol 4,5-bisphosphate 3-kinase catalytic subunit beta isoform; assay: PROTAC activity at PI3K-p110beta/VHL in human A549/DDP cells assessed as reduction in PI3K-p110beta level incubated for 12 to 36 hrs hrs by Western blot analysis; format: cell-based; settings: time 12-36 hrs
Target sequence in this assay (P40337 whole entry, looked up, canonical isoform): as the sequence (P40337 whole entry, looked up, canonical isoform) above
Target sequence in this assay (P42338 whole entry, looked up, canonical isoform): as the sequence (P42338 whole entry, looked up, canonical isoform) above

Cc1cc(C(C)Nc2ccccc2C(=O)NCCCCCCC(=O)N[C@H](C(=O)N2C[C@H](O)C[C@H]2C(=O)NCc2ccc(-c3scnc3C)cc2)C(C)(C)C)c2nc(N3CCOCC3)cc(=O)n2c1 (some centres undefined)
Activity (MCF7/ADM [1]): Active | Activity [2]: Active | Activity (MCF7/ADM [3]): Active | Activity [4]: Non-toxic | Activity (MCF7/ADM [5]): Active | inhibition (INH) [6]: Active | Activity (MCF7/ADM [7]): Active | Activity (MCF7/ADM [8]): Active | Activity (A549/CDDP [9]): Active | Activity (A549/CDDP [10]): Active | Activity [11]: inactive | Activity (MCF7/ADM [12]): Active | IC50 (A549/CDDP [13]): 39.2 µM | Activity (MCF7/ADM [14]): Active | Activity [15]: Active | Activity (A549/CDDP [16]): Active | Activity [17]: Active | Activity (MCF7/ADM [18]): Active | Activity (A549/CDDP [19]): Active | Activity (MCF7/ADM [20]): inactive | Activity (A549/CDDP [21]): Active | Activity [22]: Non-toxic | Activity (MCF7/ADM [23]): Active | Activity [24]: Non-toxic | DC50 [25]: > 30 µM | Activity [25]: Dose-dependent-effect | Activity [26]: Time-dependent-effect | Activity (MCF7/ADM [27]): Active | Activity (MCF7/ADM [28]): Active | Activity [29]: Non-toxic | Activity (Mitochondrial membrane): Active | Activity (A549/CDDP [30]): Active | Activity (MCF7/ADM [31]): Active | DC50 [32]: 2190 nM | Activity [33]: Active

Cc1cc(C(C)Nc2ccccc2C(=O)NCCOCCOCCC(=O)N[C@H](C(=O)N2C[C@H](O)C[C@H]2C(=O)NCc2ccc(-c3scnc3C)cc2)C(C)(C)C)c2nc(N3CCOCC3)cc(=O)n2c1 (some centres undefined)
Activity (MCF7/ADM [1]): Active | Activity [2]: Active | Activity (MCF7/ADM [3]): Active | Activity [4]: Non-toxic | Activity (MCF7/ADM [5]): Active | inhibition (INH) [6]: Active | Activity (MCF7/ADM [7]): Active | Activity (MCF7/ADM [8]): Active | Activity (A549/CDDP [9]): Active | Activity (A549/CDDP [10]): Active | Activity [11]: inactive | Activity (MCF7/ADM [12]): Active | IC50 (A549/CDDP [13]): 43.1 µM | Activity (MCF7/ADM [14]): Active | Activity [15]: Active | Activity (A549/CDDP [16]): Active | Activity [17]: Active | Activity (MCF7/ADM [18]): Active | Activity (A549/CDDP [19]): Active | Activity (MCF7/ADM [20]): inactive | Activity (A549/CDDP [21]): Active | Activity [22]: Non-toxic | Activity (MCF7/ADM [23]): Active | Activity [24]: Non-toxic | Activity [25]: Dose-dependent-effect | Activity [26]: Time-dependent-effect | Activity (MCF7/ADM [27]): Active | Activity (MCF7/ADM [28]): Active | Activity [29]: Non-toxic | Activity (Mitochondrial membrane): Active | Activity (A549/CDDP [30]): Active | Activity (MCF7/ADM [31]): Active | Activity ([32]; dose 0.04-50 µM): Dose-dependent-effect | Activity [33]: Active
